Columns and labels:
total ATXN3 protein = experiment: ATXN3 total protein assay (Mesoscale Discovery); type: cell-based; conditions: Human neuroblastoma SK-N-MC cells, 48 hours incubation, MSD assay
Method: Human neuroblastoma SK-N-MC cells were seeded at 10,000 cells/well in 384 well plates one day prior to compound treatment. The concentrations of compounds were tested at appropriate doses ranging from 30 µM to 0.6 nM. After incubation for 48 hours, the cells were lysed with 25.L of lysis buffer containing protease inhibitors, and total ATXN3 protein levels were assessed by Mesoscale Discovery (MSD) assay developed with one pair of and-ATXN3 antibodies. The capture and detect antibodies were raised in mouse and rabbit respectively. Anti-rabbit MSD-ST antibody was used for secondary antibody.
ATXN3 recombinant protein was used for standards. The readouts were captured with 35.L of MSD read buffer and multi-array 384-well high binding plates.

[1] = test system: ATXN3 transcripts containing exon 4; experiment: ATXN3 quantitative splicing assay (qPCR, E4E5 transcripts containing exon 4); type: cell-based; conditions: Human neuroblastoma SK-N-MC cells, 24 h treatment, qPCR primers/probe E4E5
Method: Human neuroblastoma SK-N-MC cells were plated in 384-well plates at 20,000 cells/well. Twenty-four hours after plating, cells were treated with compounds for 24 h at appropriate concentrations ranging from 30 μM to 0.6 nM (0.3% DMSO). Treated cells were lysed in 15 μL of lysis buffer, and cDNA was synthesized using the Fast Advanced Cells-to-Ct kit. Two μL of each cDNA was used in qPCR reactions to confirm the exon 4 skipped transcripts of ATXN3. A second set of primers/probe E4E5 was used to detect the transcripts containing exon 4. The third set of primers/probe E8E9 was used to detect total gene level of ATXN3. The qPCR reactions were prepared in 384-well plates in 10.L volume, using TaqMan™ Fast Advanced Master Mix with primers and probes shown in the table below. Reactions were run in a Quant Studio 6 qPCR instrument with default settings.
The primers and probes are listed below in Table 5.

IC50 (total ATXN3 protein) | IC50 [1] | Compound
10 to 40 µM | 10 to 40 µM | N[C@H](Cc1sc2c(NCc3cccs3)snc2c1Br)CC(F)F [Compound 70, 7-[(S)-2-amino-4,4-difluorobutyl]-8-bromo-4-thenylamino-3,6-dithia-2-azabicyclo[3.3.0]octa-1,4,7-triene]
5 to 10 µM | 10 to 40 µM | Cc1c(C[C@@H](N)c2ccccc2)sc2c(NCc3cccs3)snc12 [Compound 71, 7-[(R)-2-amino-2-phenylethyl]-8-methyl-4-thenylamino-3,6-dithia-2-azabicyclo[3.3.0]octa-1,4,7-triene]
0.101 to 0.5 µM | 0.501 to 5 µM | Cc1c(C[C@@H](N)[C@H](C)F)sc2c(NCc3cccs3)snc12 [Compound 72, 7-[(2R,3S)-2-amino-3-fluorobutyl]-8-methyl-4-thenylamino-3,6-dithia-2-azabicyclo[3.3.0]octa-1,4,7-triene]
5 to 10 µM | 10 to 40 µM | Cc1c(C[C@@H](N)[C@@H](C)F)sc2c(NCc3cccs3)snc12 [Compound 73, 7-[(2R,3R)-2-amino-3-fluorobutyl]-8-methyl-4-thenylamino-3,6-dithia-2-azabicyclo[3.3.0]octa-1,4,7-triene]
0.101 to 0.5 µM | 0.101 to 0.5 µM | C[C@H](F)[C@H](N)Cc1sc2c(NCc3cccs3)snc2c1Cl [Compound 74, 7-[(2R,3S)-2-amino-3-fluorobutyl]-8-chloro-4-thenylamino-3,6-dithia-2-azabicyclo[3.3.0]octa-1,4,7-triene]
0.501 to 5 µM | 0.101 to 0.5 µM | C[C@@H](F)[C@H](N)Cc1sc2c(NCc3cccs3)snc2c1Cl [Compound 75, 7-[(2R,3R)-2-amino-3-fluorobutyl]-8-chloro-4-thenylamino-3,6-dithia-2-azabicyclo[3.3.0]octa-1,4,7-triene]
10 to 40 µM | 10 to 40 µM | CC(=O)N[C@@H](C)Cc1sc2c(NCc3cccs3)snc2c1C [Compound 79, N-[(2S)-1-{6-methyl-3-[(thiophen-2-ylmethyl)amino]thieno[3,2-c][1,2]thiazol-5-yl}propan-2-yl]acetamide]
5 to 10 µM | 0.501 to 5 µM | N[C@H](Cc1sc2c(NCc3cccs3)snc2c1Br)C1CC(F)(F)C1 [Compound 80, 7-[(R)-2-amino-2-(3,3-difluorocyclobutyl)eth-yl]-8-bromo-4-thenylamino-3,6-dithia-2-azabicyclo[3.3.0]octa-1,4,7-triene]
10 to 40 µM | 10 to 40 µM | FC(F)(F)c1csc2c(NCc3ccco3)snc12 [Compound 82, (furfuryl){8-(trifluoromethyl)-3,6-dithia-2-azabicyclo[3.3.0]octa-1,4,7-trien-4-yl}amine]
5 to 10 µM | 0.501 to 5 µM | Cc1c(C[C@@H](N)C2CC(F)(F)C2)sc2c(NCc3cccs3)snc12 [Compound 84, 7-[(R)-2-amino-2-(3,3-difluorocyclobutyl)eth-yl]-8-methyl-4-thenylamino-3,6-dithia-2-azabicyclo[3.3.0]octa-1,4,7-triene]
10 to 40 µM | 10 to 40 µM | CC(=O)Nc1csc2c(NCc3cccs3)snc12 [Compound 88, N-(4-thenylamino-3,6-dithia-2-azabicyclo[3.3.0]octa-1,4,7-trien-8-yl)acetamide]
0.501 to 5 µM | 5 to 10 µM | N[C@H](Cc1sc2c(NCc3cccs3)snc2c1Cl)C(CO)CO [Compound 89, 2-{(R)-1-amino-2-(8-chloro-4-thenylamino-3,6-dithia-2-azabicyclo[3.3.0]octa-1,4,7-trien-7-yl)ethyl}-1,3-propanediol]
10 to 40 µM | 10 to 40 µM | CSc1csc2c(NCc3ccco3)snc12 [Compound 90, (furfuryl){8-(methylthio)-3,6-dithia-2-azabicyclo[3.3.0]octa-1,4,7-trien-4-yl}amine]
0.501 to 5 µM | 0.501 to 5 µM | C[C@H](F)[C@H](N)Cc1sc2c(NCc3sccc3F)snc2c1Br [Compound 93, 7-[(2R,3S)-2-amino-3-fluorobutyl]-8-bromo-4-{[(3-fluoro-2-thienyl)methyl]amino}-3,6-dithia-2-azabicyclo[3.3.0]octa-1,4,7-triene]
5 to 10 µM | 5 to 10 µM | C[C@@H](F)[C@H](N)Cc1sc2c(NCc3sccc3F)snc2c1Cl [Compound 94, 7-[(2R,3R)-2-amino-3-fluorobutyl]-8-chloro-4-{[(3-fluoro-2-thienyl)methyl]amino}-3,6-dithia-2-azabicyclo[3.3.0]octa-1,4,7-triene]
0.501 to 5 µM | 0.501 to 5 µM | C[C@H](F)[C@H](N)Cc1sc2c(NCc3sccc3F)snc2c1Cl [Compound 95, 7-[(2R,3S)-2-amino-3-fluorobutyl]-8-chloro-4-{[(3-fluoro-2-thienyl)methyl]amino}-3,6-dithia-2-azabicyclo[3.3.0]octa-1,4,7-triene]
5 to 10 µM | 0.501 to 5 µM | C[C@H](F)[C@H](N)Cc1sc2c(NCc3ccc(F)s3)snc2c1Cl [Compound 96, 7-[(2R,3S)-2-amino-3-fluorobutyl]-8-chloro-4-{[(5-fluoro-2-thienyl)methyl]amino}-3,6-dithia-2-azabicyclo[3.3.0]octa-1,4,7-triene]
0.501 to 5 µM | 0.501 to 5 µM | C=Cc1c(C[C@@H](N)[C@H](C)F)sc2c(NCc3cccs3)snc12 [Compound 97, 7-[(2R,3S)-2-amino-3-fluorobutyl]-4-thenylamino-8-vinyl-3,6-dithia-2-azabicyclo[3.3.0]octa-1,4,7-triene]
0.501 to 5 µM | 0.501 to 5 µM | C[C@H](N)C(F)(F)c1sc2c(NCc3cccs3)snc2c1Cl [Compound 98, 7-[(S)-2-amino-1,1-difluoropropyl]-8-chloro-4-thenylamino-3,6-dithia-2-azabicyclo[3.3.0]octa-1,4,7-triene]
0.501 to 5 µM | 0.501 to 5 µM | C[C@H](N)C(F)(F)c1sc2c(NCc3cccs3)snc2c1Br [Compound 99, 5-[(2S)-2-amino-1,1-difluoropropyl]-6-bromo-N-(thiophen-2-ylmethyl)thieno[3,2-c][1,2]thiazol-3-amine]
0.501 to 5 µM | 0.501 to 5 µM | N[C@@H](COC1CC1)Cc1sc2c(NCc3cccs3)snc2c1Br [Compound 100, 7-[(R)-2-amino-3-cyclopropoxypropyl]-8-bromo-4-thenylamino-3,6-dithia-2-azabicyclo[3.3.0]octa-1,4,7-triene]
0.501 to 5 µM | 0.501 to 5 µM | N[C@H](Cc1sc2c(NCc3ccco3)snc2c1Cl)C(F)F [Compound 101, 7-[(R)-2-amino-3,3-difluoropropyl]-8-chloro-4-(furfurylamino)-3,6-dithia-2-azabicyclo[3.3.0]octa-1,4,7-triene]
10 to 40 µM | 10 to 40 µM | C[C@H](N)C(O)c1sc2c(NCc3cccs3)snc2c1Cl (stereo partly drawn) [Compound 102, (2S)-2-amino-1-(8-chloro-4-thenylamino-3,6-dithia-2-azabicyclo[3.3.0]octa-1,4,7-trien-7-yl)-1-propanol]
10 to 40 µM | 10 to 40 µM | C[C@H](N)C(O)c1sc2c(NCc3cccs3)snc2c1Br (stereo partly drawn) [Compound 103, (2S)-2-amino-1-{6-bromo-3-[(thiophen-2-ylmethyl)amino]thieno[3,2-c][1,2]thiazol-5-yl}propan-1-ol]
0.501 to 5 µM | 0.501 to 5 µM | N[C@@H](CF)Cc1sc2c(NCc3nccs3)snc2c1Br [Compound 104, 7-[(R)-2-amino-3-fluoropropyl]-8-bromo-4-{[(1,3-thiazol-2-yl)methyl]amino}-3,6-dithia-2-azabicyclo[3.3.0]octa-1,4,7-triene]
0.101 to 0.5 µM | 0.101 to 0.5 µM | C[C@H](F)[C@H](N)Cc1sc2c(NCc3nccs3)snc2c1Br [Compound 105, 7-[(2R,3S)-2-amino-3-fluorobutyl]-8-bromo-4-{[(1,3-thiazol-2-yl)methyl]amino}-3,6-dithia-2-azabicyclo[3.3.0]octa-1,4,7-triene]

Compound | IC50 (total ATXN3 protein) | IC50 [1]
C[C@H](N)Cc1sc2c(NCc3nccs3)snc2c1Cl [Compound 76, 7-[(S)-2-aminopropyl]-8-chloro-4-{[(1,3-thiazol-2-yl)methyl]amino}-3,6-dithia-2-azabicyclo[3.3.0]octa-1,4,7-triene] | 0.101 to 0.5 µM | 0.101 to 0.5 µM
C[C@H](N)Cc1sc2c(NCc3ccco3)snc2c1C(F)(F)F [Compound 81, 7-[(S)-2-aminopropyl]-4-(furfurylamino)-8-(trifluoromethyl)-3,6-dithia-2-azabicyclo[3.3.0]octa-1,4,7-triene] | 0.501 to 5 µM | 0.501 to 5 µM
CSc1c(C[C@H](C)N)sc2c(NCc3ccco3)snc12 [Compound 85, 7-[(S)-2-aminopropyl]-4-(furfurylamino)-8-(methylthio)-3,6-dithia-2-azabicyclo[3.3.0]octa-1,4,7-triene] | 10 to 40 µM | 5 to 10 µM
C[C@H](N)Cc1sc2c(NCc3cccs3)snc2c1CO [Compound 87, {7-[(S)-2-aminopropyl]-4-thenylamino-3,6-dithia-2-azabicyclo[3.3.0]octa-1,4,7-trien-8-yl}methanol] | 10 to 40 µM | 10 to 40 µM

Source: patent publication US20250340570A1, “COMPOSITIONS USEFUL FOR MODULATING SPLICING” (Skyhawk Therapeutics, Inc., priority 2022, published 2025)
